Experimental data reported in publication PMC5503534, “Stable aneuploid tumors cells are more sensitive to TTK inhibition than chromosomally unstable cell lines” (Oncotarget, 2017).
Where “and” joins values, the source holds several entries; their conditions need not be identical. Identical values can stand only once. Like-named read-outs stand apart in the source and are kept apart here.

Columns and labels:
[1] = test system: HCT 116 colon carcinoma cell line; assay: Cell proliferation assay (ATPlite), HCT 116; format: cell-based, human
Description: (§1) Cell proliferation assays were carried out as described using ATPlite 1step™ (Perkin Elmer, Groningen, The Netherlands). Exposure time was 72 or 120 hours as indicated in the Legends to the Figures. Percentage growth was calculated, relative to the growth of unexposed cells, and relative IC50s were fitted using a four-parameter logistics curve (XLfit 5.3, IDBS). For Figure 4A and 7 dose response curves were redrawn in Prism. To compare the inhibitory potency of compounds in proliferation assays with HCT 116 parental and tetraploid clones, pIC50 (−^10logIC50) values were compared in three independent experiments. A two-tailed Student's t-test was performed to determine whether differences in sensitivity (ΔpIC50) were statistically significant. Caspase 3/7 activity of cancer cells was measured using Caspase-Glo 3/7 Assay kit (cat no. G8093, Promega, Madison USA). Viability of T-ALL cell samples was determined using ATPlite and exposure of 72 hours as described previously.

[2] = test system: LoVo colorectal adenocarcinoma cell line; assay: Cell proliferation assay (ATPlite), LoVo; format: cell-based, human; conditions: 5 day proliferation assay
Description: as §1

[3] = test system: MG-63 osteosarcoma cell line; assay: Cell proliferation assay (ATPlite), MG-63; format: cell-based, human; conditions: 5 day proliferation assay
Description: as §1

[4] = test system: OVCAR-3 ovary adenocarcinoma cell line; assay: Cell proliferation assay (ATPlite), OVCAR-3; format: cell-based, human; conditions: 5 day proliferation assay
Description: as §1

[5] = test system: post-tetraploid HPT1 cells; assay: Cell proliferation assay, post-tetraploid HPT1; format: cell-based, human; conditions: HPT1, five days
Description: (§2) Cancer cell lines and hTERT-RPE1 retinal pigment epithelial cells were purchased from the American Type Culture Collection (ATCC) (Manassas, VA, U.S.A.) from 2011 to 2014 [41] and cultured in ATCC-recommended media. All experiments were carried out within nine passages of the original vials from ATCC who authenticated the cancer cell lines by short tandem repeat analysis. We verified the mutant status of seven frequently mutated cancer genes (i.e., BRAF, CDKN2A, CTNNB1, EGFR, KRAS, PIK3CA and TP53) by full exome or targeted sequencing. Sequencing results were compared to COSMIC version 75 of the Genomics of Drug Sensitivity in Cancer data base and provided additional authentication of the identity of the cell lines. The isolation and characterization of post-tetraploid clones from HCT 116 has been described previously. The mutation status of the CDKN2A, CTNNB1, KRAS and PIK3CA genes were confirmed by sequence analysis in both the HCT 116 parental cell line and post-tetraploid clones. All experiments were carried out within nine passages of the original cell stocks that were transferred from the Max Planck Institute of Biochemistry (Martinsried, Germany) to Netherlands Translational Research Center.
as §1

[6] = test system: post-tetraploid HPT2 cells; assay: Cell proliferation assay, post-tetraploid HPT2; format: cell-based, human; conditions: HPT2, five days
Description: as §2, §1

[7] = test system: HCT 116 vs HPT1, -2 and -4; assay: Drug sensitivity analysis, HCT116 diploid versus tetraploids; format: cell-based, human
Description: as §1

[8] = test system: pediatric T-ALL patient cell samples; assay: Viability assays with T-ALL patient samples; format: cell-based, human; conditions: read-out: IC50
Description: Written informed consent was obtained from the parents or legal guardians of each T-ALL patient to use excess diagnostic material for research purposes. The study was performed in accordance with the Institutional Review Board of the Erasmus Medical Center Rotterdam (The Netherlands) and in accordance with the Declaration of Helsinki. Leukemic cells were harvested from blood or bone marrow samples and were enriched to ≥ 90% purity.
as §1

[9] = test system: HCT 116, HPT1, HPT2 and HPT4 cells; assay: Time-lapse microscopy, HCT 116 and post-tetraploid clones; format: cell-based, human; conditions: 100 nM, post-tetraploid clones and parental cell line
Description: HCT 116 diploid and tetraploids stably expressed green fluorescent protein-tagged histone 2B (H2B-GFP). All other cell lines were pre-incubated with SiR-DNA (Spirochrome, Switzerland) in order to visualize DNA. Cells were cultured in Leibovitz L15 CO2-independent cell culture medium in 6-well glass bottom chamber (LabTek Corp., Australia) and synchronized by treatment with 2 mM thymidine. After 24 hours of synchronization, and 4 hours before the start of the imaging experiment, medium was replaced by medium without thymidine. […] Image Z-stacks were acquired with 3-μm intervals using a sCMOS camera (DeltaVision RT; Applied Precision, GE Healthcare, Issaquah, WA) and processed using ImageJ software (NIH, Bethesda, MD, USA). Chromosome mis-segregation phenotypes co-occurred and many combinations existed. For clarity, all the events were scored and included: more than two phenotypes, mitotic slippage, DNA bridge, micro-nuclei and multipolar spindle.

[10] = test system: caspase 3/7 in HCT 116, HPT1, HPT2 and HPT4 cells; assay: Caspase 3/7 activity assay; format: cell-based, human; conditions: 316 nM, three days, parental line and HPT1, HPT2, HPT4
Description: as §1

[11] = test system: HCT 116 parental cells or tetraploids; assay: Colony formation assay; format: cell-based, human; conditions: pre-treated 4 days with 100 nM, reseeded
Description: After 4 days, the cells were washed with phosphate-buffered saline (PBS) and allowed to recover for 24 hours. The remaining cells were collected and plated at a density of 1000 cells per well in a 96-well plate. After ten days, cells were fixed with 96% methanol for 20 minutes, washed with PBS and stained with 0.1% (w/v) crystal violet over-night. Plates were washed in tap water and allowed to dry before scanning and analysis with ImageJ software (NIH, Bethesda, MD, USA).

[12] = test system: HCT 116 colon carcinoma cell line; conditions: three day cell proliferation assay; cited from earlier work
[13] = test system: LoVo colorectal adenocarcinoma cell line; conditions: three day cell proliferation assay; cited from earlier work
[14] = test system: A-172 glioblastoma cell line; conditions: three day cell proliferation assay; cited from earlier work
[15] = test system: MG-63 osteosarcoma cell line; conditions: three day cell proliferation assay; cited from earlier work
[16] = test system: OVCAR-3 ovary adenocarcinoma cell line; conditions: three day cell proliferation assay; cited from earlier work
[17] = toxicity studies in mice; cited from earlier work
[18] = geometric average of three experiments

Compound: CCc1cccc(CC)c1NC(=O)c1ccn2c1CCc1cnc(Nc3ccc(N4CCN(C)CC4)cc3OC)nc1-2 [NTRC 0066-0]
- IC50 ([1]; 5 day proliferation assay, HCT 116 (Suppl. Table 1)): 41 nM
- Eff. (%) ([1]; HCT 116, five days, maximum inhibitory effect, average of three experiments): 80%
- IC50 ([1]; HCT 116 near-diploid, five days, geometric average of three experiments (Suppl. Table 2A)): 44 nM
- IC50 [2]: 35 nM
- IC50 [3]: 260 nM
- IC50 [4]: 268 nM
- Efficacy (%) ([5]; average of three experiments): 59%
- IC50 [5, 18]: 40 nM
- Efficacy (%) ([6]; average of three experiments): 36%
- IC50 [6, 18]: 44 nM
- Δeff. (%) ([7]; HCT 116 vs HPT1, -2 and -4): −33%
- Phenotype (efficacy) ([7]; HCT 116 vs HPT1, -2 and -4, based on % effect): resistant
- Phenotype (potency) ([7]; HCT 116 vs HPT1, -2 and -4, 'resistant' indicates that tetraploids are resistant): sensitive
- ΔpIC50 ([7]; average log shift in sensitivity between parental and tetraploids): −0.01
- IC50 ([8]; all ten T-ALL patient samples, three days): ≥ 5000 nM
- IC50 ([8]; patient sample 491, three-day assay): 5000 nM
- IC50 ([8]; patient sample 1033, three-day assay): 5100 nM
- IC50 ([8]; patient sample 1816, three-day assay): 8100 nM
- IC50 ([8]; patient sample 2323, three-day assay): 7100 nM
- IC50 ([8]; patient sample 3594, three-day assay): 4800 nM
- IC50 ([8]; patient sample 3852, three-day assay): 4900 nM
- IC50 ([8]; patient sample 4023, three-day assay): 5400 nM
- IC50 ([8]; patient sample 4126, three-day assay): 9200 nM
- IC50 ([8]; patient sample 4992, three-day assay): 4900 nM
- IC50 ([8]; patient sample 10110, three-day assay): 4500 nM
- time-in-mitosis [9]: 20 min
- caspase 3/7 activity [10]: induced caspase 3/7 activity
- proliferation after compound wash-out (colony formation) [11]: unable to fully resume proliferation
- IC50 [12]: 37 nM
- IC50 [13]: 40 nM
- IC50 [14]: 51 nM
- IC50 [15]: 135 nM
- IC50 [16]: 897 nM and 872 nM
- effect on bone marrow or blood cell count (hematological toxicity) [17]: no effect on bone marrow or blood cell count
